In patent publication US6737383B1, “Herbicidal oxadiazolidines” (priority 1999, dated 2004):

What was measured:
blackgrass = assay: Test B pre/postemergence blackgrass; format: in vivo, Alopecurus myosuroides
Procedure, shortened: (§1)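 Response is a visual 0-to-10 score relative to untreated plants, where 0 means no effect and 10 means complete control, taken twelve to sixteen days after application. Treatments went onto soil at planting and onto foliage of 1- to 4-leaf plants, using a surfactant-containing non-phytotoxic solvent.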

surinam grass = assay: Test B pre/postemergence surinam grass; format: in vivo, Brachiaria decumbens
Procedure, shortened: as §1

cocklebur = assay: Test B pre/postemergence cocklebur; format: in vivo, Xanthium strumarium
Procedure, shortened: as §1

corn = assay: Test B pre/postemergence corn; format: in vivo, Zea mays
Procedure, shortened: as §1

crabgrass = assay: Test B pre/postemergence crabgrass; format: in vivo, Digitaria sanguinalis
Procedure, shortened: as §1

giant foxtail = assay: Test B pre/postemergence giant foxtail; format: in vivo, Setaria faberii
Procedure, shortened: as §1

morningglory = assay: Test B pre/postemergence morningglory; format: in vivo, Ipomoea hederacea; details: for Plant response rating, Morningglory: scale of 0 to 10 where 0 is no effect and 10 is complete control
Procedure, shortened: as §1

rape = assay: Test B pre/postemergence rape; format: in vivo, Brassica napus; details: for Plant response rating, Rape: scale of 0 to 10 where 0 is no effect and 10 is complete control
Procedure, shortened: as §1

soybean = assay: Test B pre/postemergence soybean; format: in vivo, Glycine max; details: for Plant response rating, Soybean: scale of 0 to 10 where 0 is no effect and 10 is complete control
Procedure, shortened: as §1

velvetleaf = assay: Test B pre/postemergence velvetleaf; format: in vivo, Abutilon theophrasti; details: for Plant response rating, Velvetleaf: scale of 0 to 10 where 0 is no effect and 10 is complete control
Procedure, shortened: as §1

wheat = assay: Test B pre/postemergence wheat; format: in vivo, Triticum aestivum; details: for Plant response rating, Wheat: scale of 0 to 10 where 0 is no effect and 10 is complete control
Procedure, shortened: as §1

wild oat = assay: Test B pre/postemergence wild oat; format: in vivo, Avena fatua; details: for Plant response rating, Wild oats: scale of 0 to 10 where 0 is no effect and 10 is complete control
Procedure, shortened: as §1

smallflower flatsedge = assay: Test B flood test smallflower flatsedge; format: in vivo, Cyperus difformis
Procedure, shortened: (§2)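 Read-out is a visual response score from 0 (no effect) to 10 (complete control), assigned by comparison with untreated controls. Treatment was applied at the 2-leaf stage, and plants stayed in the greenhouse for twelve to sixteen days before scoring.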

duck salad = assay: Test B flood test duck salad; format: in vivo, Heteranthera limosa
Procedure, shortened: as §2

bamyardgrass = assay: Test B flood test barnyardgrass; format: in vivo, Echinochloa crus-galli
Procedure, shortened: as §2

[1] = Postemergence, Rate 250 g/ha, scale 0 to 10
[2] = Postemergence, Rate 500 g/ha, scale of 0 to 10 where 0 is no effect and 10 is complete control
[3] = Preemergence, Rate 62 g/ha, scale of 0 to 10 where 0 is no effect and 10 is complete control
[4] = Preemergence, Rate 125 g/ha, scale of 0 to 10 where 0 is no effect and 10 is complete control
[5] = Preemergence, Rate 250 g/ha, scale 0 to 10, 0 is no effect, 10 is complete control
[6] = Preemergence, Rate 500 g/ha, scale 0 to 10, 0 is no effect, 10 is complete control
[7] = Rate 62 g/ha, Postemergence, scale 0 to 10, 0 no effect, 10 complete control
[8] = Rate 125 g/ha, Postemergence, scale 0 to 10, 0 is no effect, 10 is complete control
[9] = Rate 62 g/ha, flood test species, Pre-emergence, visual evaluation after twelve to sixteen days
[10] = Rate 125 g/ha, under heading Pre-emergence, flood test species, visual evaluation after twelve to sixteen days
[11] = Rate 250 g/ha, Pre-emergence (flood test species), scale 0 to 10, 0 is no effect, 10 is complete control
[12] = Rate 500 g/ha, Pre-emergence, flood test species, scale 0 to 10 (0 no effect, 10 complete control)

C=CC(OC)n1c(=O)on(C(=O)N(c2ccc(F)cc2)C(C)C)c1=O (centres unmarked) [Compound 452]
Blackgrass plant response rating (blackgrass; [1]): 3
Blackgrass plant response rating (blackgrass; [2]): 5
Plant response rating, Blackgrass (blackgrass; [3]): 0
Plant response rating, Blackgrass (blackgrass; [4]): 0
Blackgrass plant response rating (blackgrass; [5]): 2
Blackgrass plant response rating (blackgrass; [6]): 2
Blackgrass plant response rating (blackgrass; [7]): 0
Blackgrass plant response rating (blackgrass; [8]): 0
B. signalgrass plant response rating (surinam grass; Postemergence, Rate 250 g/ha, scale 0 to 10, 0 no effect, 10 complete control): 0
B. signalgrass plant response rating (surinam grass; [2]): 0
Plant response rating, B. signalgrass (surinam grass; [3]): 0
Plant response rating, B. signalgrass (surinam grass; [4]): 0
B. signalgrass plant response rating (surinam grass; [5]): 0
B. signalgrass plant response rating (surinam grass; [6]): 0
B. signalgrass plant response rating (surinam grass; [7]): 0
B. signalgrass plant response rating (surinam grass; [8]): 0
Cocklebur plant response rating (cocklebur; [1]): 0
Cocklebur plant response rating (cocklebur; [2]): 0
Plant response rating, Cocklebur (cocklebur; [3]): 0
Plant response rating, Cocklebur (cocklebur; [4]): 0
Cocklebur plant response rating (cocklebur; [5]): 0
Cocklebur plant response rating (cocklebur; [6]): 0
Cocklebur plant response rating (cocklebur; [7]): 0
Cocklebur plant response rating (cocklebur; [8]): 0
Corn plant response rating (corn; [1]): 0
Corn plant response rating (corn; [2]): 0
Plant response rating, Corn (corn; [3]): 0
Plant response rating, Corn (corn; [4]): 0
Corn plant response rating (corn; [5]): 0
Corn plant response rating (corn; [6]): 0
Corn plant response rating (corn; [7]): 0
Corn plant response rating (corn; [8]): 0
Crabgrass plant response rating (crabgrass; [1]): 6
Crabgrass plant response rating (crabgrass; [2]): 6
Plant response rating, Crabgrass (crabgrass; [3]): 5
Plant response rating, Crabgrass (crabgrass; [4]): 5
Crabgrass plant response rating (crabgrass; [5]): 5
Crabgrass plant response rating (crabgrass; [6]): 5
Crabgrass plant response rating (crabgrass; [7]): 3
Giant foxtail plant response rating (giant foxtail; [1]): 7
Giant foxtail plant response rating (giant foxtail; [2]): 7
Plant response rating, Giant foxtail (giant foxtail; [3]): 2
Plant response rating, Giant foxtail (giant foxtail; [4]): 3
Giant foxtail plant response rating (giant foxtail; [5]): 4
Giant foxtail plant response rating (giant foxtail; [6]): 7
Giant foxtail plant response rating (giant foxtail; [7]): 2
Giant foxtail plant response rating (giant foxtail; [8]): 4
Morningglory plant response rating (morningglory; [1]): 2
Plant response rating, Morningglory (morningglory; Preemergence, Rate 62 g/ha): 0
Plant response rating, Morningglory (morningglory; Preemergence, Rate 125 g/ha): 0
Morningglory plant response rating (morningglory; [5]): 0
Morningglory plant response rating (morningglory; [6]): 0
Morningglory plant response rating (morningglory; [7]): 1
Morningglory plant response rating (morningglory; [8]): 2
Rape plant response rating (rape; [1]): 0
Plant response rating, Rape (rape; Preemergence, Rate 62 g/ha): 0
Plant response rating, Rape (rape; Preemergence, Rate 125 g/ha): 0
Rape plant response rating (rape; [5]): 0
Rape plant response rating (rape; [6]): 0
Rape plant response rating (rape; [7]): 0
Rape plant response rating (rape; [8]): 0
Soybean plant response rating (soybean; [1]): 1
Plant response rating, Soybean (soybean; Preemergence, Rate 62 g/ha): 0
Plant response rating, Soybean (soybean; Preemergence, Rate 125 g/ha): 0
Soybean plant response rating (soybean; [5]): 0
Soybean plant response rating (soybean; [6]): 0
Soybean plant response rating (soybean; [7]): 1
Soybean plant response rating (soybean; [8]): 1
Velvetleaf plant response rating (velvetleaf; [1]): 0
Plant response rating, Velvetleaf (velvetleaf; Preemergence, Rate 62 g/ha): 0
Plant response rating, Velvetleaf (velvetleaf; Preemergence, Rate 125 g/ha): 0
Velvetleaf plant response rating (velvetleaf; [5]): 0
Velvetleaf plant response rating (velvetleaf; [6]): 0
Velvetleaf plant response rating (velvetleaf; [7]): 0
Velvetleaf plant response rating (velvetleaf; [8]): 0
Wheat plant response rating (wheat; [1]): 0
Plant response rating, Wheat (wheat; Preemergence, Rate 62 g/ha): 0
Plant response rating, Wheat (wheat; Preemergence, Rate 125 g/ha): 0
Wheat plant response rating (wheat; [5]): 0
Wheat plant response rating (wheat; [6]): 0
Wheat plant response rating (wheat; [7]): 0
Wheat plant response rating (wheat; [8]): 0
Wild oats plant response rating (wild oat; [1]): 0
Plant response rating, Wild oats (wild oat; Preemergence, Rate 62 g/ha): 0
Plant response rating, Wild oats (wild oat; Preemergence, Rate 125 g/ha): 0
Wild oats plant response rating (wild oat; [5]): 0
Wild oats plant response rating (wild oat; [6]): 0
Wild oats plant response rating (wild oat; [7]): 0
Wild oats plant response rating (wild oat; [8]): 0
Plant response rating, S. Flatsedge (0 to 10 scale, 0 is no effect, 10 is complete control) (smallflower flatsedge; [9]): 0
S. Flatsedge plant response rating (0 to 10 scale, 0 is no effect, 10 is complete control) (smallflower flatsedge; [10]): 0
S. Flatsedge plant response rating (smallflower flatsedge; [11]): 0
S. Flatsedge plant response rating (smallflower flatsedge; [12]): 0
Plant response rating, Ducksalad (0 to 10 scale, 0 is no effect, 10 is complete control) (duck salad; [9]): 0
Ducksalad plant response rating (0 to 10 scale, 0 is no effect, 10 is complete control) (duck salad; [10]): 0
Ducksalad plant response rating (duck salad; [11]): 0
Ducksalad plant response rating (duck salad; [12]): 0
Plant response rating, Barnyardgrass (0 to 10 scale, 0 is no effect, 10 is complete control) (bamyardgrass; [9]): 0
Barnyardgrass plant response rating (0 to 10 scale, 0 is no effect, 10 is complete control) (bamyardgrass; [10]): 0
Barnyardgrass plant response rating (bamyardgrass; [11]): 0
Barnyardgrass plant response rating (bamyardgrass; [12]): 0
